Results reported in patent publication US20080009418A1, “Selective Inhibitors” (Alchemia LTD., priority 2004, published 2008).

Legend:
Human neurokinin (NK1) = biological target: T1, Human neurokinin (NK1) (Homo sapiens, UniProt P25103); assay: Radioligand binding, human neurokinin NK1 membranes, filtration, [125I]-Substance P; settings: compound at 10 μM
T1 construct: purchased Perkin Elmer Biosignal
In short: (§1)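 Membranes from cloned human receptors were incubated with compound and radioligand for 1 hour at room temperature. Bound ligand was collected on 0.3% PEI-soaked filters, washed with cold 50 mM Tris-HCl pH 7.4, and counted by scintillation. Percent inhibition was computed against DMSO totals and reference-ligand nonspecific wells.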

Human κ-Opioid (KOP) = biological target: T2, Human κ-Opioid (KOP) (Homo sapiens, UniProt P41145); assay: Radioligand binding, human κ-opioid (KOP) membranes, filtration, [3H]-Diprenorphine; settings: compound at 10 μM
T2 construct: purchased Perkin Elmer Biosignal
T2 sequence (P41145 whole entry): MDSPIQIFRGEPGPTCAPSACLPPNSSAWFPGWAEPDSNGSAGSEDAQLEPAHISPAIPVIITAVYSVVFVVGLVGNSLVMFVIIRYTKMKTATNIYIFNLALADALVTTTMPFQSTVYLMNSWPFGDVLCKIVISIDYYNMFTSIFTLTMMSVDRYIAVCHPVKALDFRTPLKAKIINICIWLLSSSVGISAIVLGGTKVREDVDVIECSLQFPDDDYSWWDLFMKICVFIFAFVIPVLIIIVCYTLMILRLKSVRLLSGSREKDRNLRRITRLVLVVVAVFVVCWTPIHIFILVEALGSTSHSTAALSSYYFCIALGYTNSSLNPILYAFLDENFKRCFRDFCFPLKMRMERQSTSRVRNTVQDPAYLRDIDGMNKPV
In short: as §1

Human Melanocortin (MC4) = biological target: T3, Human Melanocortin (MC4) (Homo sapiens, UniProt P32245); assay: Radioligand binding, human melanocortin MC4 membranes, FlashPlate, [125I]-NDP-αMSH; settings: compound at 10 μM
T3 construct: purchased Perkin Elmer Biosignal
T3 sequence (P32245 whole entry): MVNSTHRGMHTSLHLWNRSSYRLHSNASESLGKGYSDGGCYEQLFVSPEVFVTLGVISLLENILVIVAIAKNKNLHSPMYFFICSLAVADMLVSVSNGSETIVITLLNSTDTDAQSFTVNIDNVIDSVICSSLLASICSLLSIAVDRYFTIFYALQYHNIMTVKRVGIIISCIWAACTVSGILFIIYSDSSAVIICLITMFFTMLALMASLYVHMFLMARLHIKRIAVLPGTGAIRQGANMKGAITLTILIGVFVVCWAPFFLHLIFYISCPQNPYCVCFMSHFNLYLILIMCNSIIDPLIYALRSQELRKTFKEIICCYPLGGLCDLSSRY
In short: (§2)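 Cloned human receptor membranes were coated onto FlashPlate wells and incubated with radioligand and compound (added from a 0.5 mM DMSO daughter plate) for 1 hour at room temperature in the dark. Scintillation counting gave percent inhibition, with DMSO defining total and reference ligand defining non-specific binding.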

Human Melanocortin (MC3) = biological target: T4, Human Melanocortin (MC3) (Homo sapiens, UniProt P41968); assay: Radioligand binding, human melanocortin MC3 membranes, FlashPlate, [125I]-NDP-αMSH; settings: compound at 10 μM
T4 construct: purchased Perkin Elmer Biosignal
T4 sequence (P41968 whole entry): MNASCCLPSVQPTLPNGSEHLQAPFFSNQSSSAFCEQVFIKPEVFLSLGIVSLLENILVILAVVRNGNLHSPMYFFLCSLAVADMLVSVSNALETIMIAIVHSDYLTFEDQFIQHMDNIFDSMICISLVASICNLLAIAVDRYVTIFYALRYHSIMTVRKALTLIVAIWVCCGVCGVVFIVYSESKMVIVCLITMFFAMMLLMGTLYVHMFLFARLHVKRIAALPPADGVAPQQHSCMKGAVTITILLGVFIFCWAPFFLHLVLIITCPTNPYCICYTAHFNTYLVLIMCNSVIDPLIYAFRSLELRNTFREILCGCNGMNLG
In short: as §2

Human δ-opioid (DOP) = biological target: T5, Human δ-opioid (DOP) (Homo sapiens, UniProt P41143); assay: Radioligand binding, human δ-opioid (DOP) membranes, FlashPlate, [3H]-Bremazocine; settings: compound at 10 μM
T5 construct: purchased Perkin Elmer Biosignal
T5 sequence (P41143 whole entry): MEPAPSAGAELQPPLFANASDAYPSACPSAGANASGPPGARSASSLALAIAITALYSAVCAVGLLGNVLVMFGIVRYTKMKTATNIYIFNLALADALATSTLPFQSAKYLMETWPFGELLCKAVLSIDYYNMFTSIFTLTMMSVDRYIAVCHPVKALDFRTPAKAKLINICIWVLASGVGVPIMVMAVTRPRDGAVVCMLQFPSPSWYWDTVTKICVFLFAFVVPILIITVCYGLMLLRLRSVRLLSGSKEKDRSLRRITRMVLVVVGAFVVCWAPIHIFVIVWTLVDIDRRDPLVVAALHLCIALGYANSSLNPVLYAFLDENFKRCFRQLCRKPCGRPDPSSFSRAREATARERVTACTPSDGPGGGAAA
In short: as §2

Human μ-opioid (MOP) = biological target: T6, Human μ-opioid (MOP) (Homo sapiens, UniProt P35372); assay: Radioligand binding, human μ-opioid (MOP) membranes, FlashPlate, [3H]-Naloxone; settings: compound at 10 μM
T6 construct: purchased Perkin Elmer Biosignal
T6 sequence (P35372 whole entry): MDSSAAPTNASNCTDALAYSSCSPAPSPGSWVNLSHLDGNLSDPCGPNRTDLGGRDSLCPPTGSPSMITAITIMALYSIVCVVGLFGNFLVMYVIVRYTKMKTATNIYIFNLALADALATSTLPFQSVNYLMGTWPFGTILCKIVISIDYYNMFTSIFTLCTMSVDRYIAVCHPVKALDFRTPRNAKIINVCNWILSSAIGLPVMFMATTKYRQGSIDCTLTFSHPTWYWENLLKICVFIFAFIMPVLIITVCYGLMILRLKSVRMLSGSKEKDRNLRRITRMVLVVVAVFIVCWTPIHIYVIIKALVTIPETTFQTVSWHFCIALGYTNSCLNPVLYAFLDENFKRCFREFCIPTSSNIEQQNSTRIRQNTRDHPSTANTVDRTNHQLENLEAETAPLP
In short: as §2

[1] = biological target: T7, Human neuropeptide Y (NPY-Y1) (Homo sapiens, UniProt P25929); assay: Radioligand binding, human neuropeptide Y NPY-Y1 membranes, FlashPlate, [125I]-PYY; settings: compound at 10 μM
T7 construct: purchased Perkin Elmer Biosignal
T7 sequence (P25929 1-384): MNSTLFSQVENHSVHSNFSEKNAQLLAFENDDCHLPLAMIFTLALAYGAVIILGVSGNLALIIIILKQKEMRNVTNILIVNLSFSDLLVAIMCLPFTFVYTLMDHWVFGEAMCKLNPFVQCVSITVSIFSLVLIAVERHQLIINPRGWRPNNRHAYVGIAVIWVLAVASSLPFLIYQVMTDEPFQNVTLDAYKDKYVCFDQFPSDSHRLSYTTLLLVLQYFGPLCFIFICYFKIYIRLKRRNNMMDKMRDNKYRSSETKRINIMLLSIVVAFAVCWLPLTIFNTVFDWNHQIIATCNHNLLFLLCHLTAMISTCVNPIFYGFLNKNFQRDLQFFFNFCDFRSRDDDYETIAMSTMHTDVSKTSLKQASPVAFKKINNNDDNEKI
In short: as §2

Mouse urotensin (mUR2) = biological target: T8, Mouse urotensin (mUR2) (Mus musculus, UniProt Q8VIH9); assay: Radioligand binding, mouse urotensin mUR2 membranes, FlashPlate, [125I]-Urotensin II; settings: compound at 10 μM
T8 construct: purchased Perkin Elmer Biosignal
T8 sequence (Q8VIH9 1-385): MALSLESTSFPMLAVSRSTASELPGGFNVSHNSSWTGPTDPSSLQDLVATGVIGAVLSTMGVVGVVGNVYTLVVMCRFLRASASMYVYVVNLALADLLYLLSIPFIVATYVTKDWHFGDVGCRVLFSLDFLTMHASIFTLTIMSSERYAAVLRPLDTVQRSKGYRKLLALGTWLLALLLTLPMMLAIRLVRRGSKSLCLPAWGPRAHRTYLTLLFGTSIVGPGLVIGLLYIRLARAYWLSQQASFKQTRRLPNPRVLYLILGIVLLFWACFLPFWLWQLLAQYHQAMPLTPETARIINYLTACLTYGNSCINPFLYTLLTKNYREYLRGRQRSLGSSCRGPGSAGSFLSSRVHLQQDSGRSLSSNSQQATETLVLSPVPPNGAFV
In short: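 Cloned mouse urotensin (mUR2) receptor membranes from Perkin Elmer Biosignal were immobilized in FlashPlate microplates using a proprietary coating. Each well got 19.5 μl buffer, then 0.5 μl of DMSO, reference ligand, or compound. Adding 5 μl of [125I]-Urotensin II, diluted to 5× final concentration in binding buffer, started binding. Plates were sealed with TopSeal-A and incubated 1 hour at room temperature in the dark. Wells were counted for 30 seconds each on a TopCount after a 60-second delay, and percentage inhibition was calculated.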

[2] = biological target: T9, Human melanin-concentrating hormone (MCH1) (Homo sapiens, UniProt Q99705); assay: Radioligand binding, human melanin-concentrating hormone MCH1 membranes, FlashPlate, [125I]-S36057; settings: compound at 10 μM; for A6: inhibition of radioligand binding, human melanin-concentrating hormone (MCH1): [125I]-S36057
T9 construct: purchased Perkin Elmer Biosignal
T9 sequence (Q99705 whole entry): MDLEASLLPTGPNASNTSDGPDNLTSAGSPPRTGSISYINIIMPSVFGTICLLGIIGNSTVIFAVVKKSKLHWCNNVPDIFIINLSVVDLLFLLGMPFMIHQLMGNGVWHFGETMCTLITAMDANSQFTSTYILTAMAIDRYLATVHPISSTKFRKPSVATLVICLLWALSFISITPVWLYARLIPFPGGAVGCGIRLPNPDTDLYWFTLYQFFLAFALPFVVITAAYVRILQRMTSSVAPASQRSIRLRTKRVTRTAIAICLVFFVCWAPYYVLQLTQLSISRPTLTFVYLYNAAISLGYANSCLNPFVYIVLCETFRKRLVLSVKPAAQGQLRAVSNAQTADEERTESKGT
In short: as §2

Human melanocortin (MC5) = biological target: T10, Human melanocortin (MC5) (Homo sapiens, UniProt P33032); assay: Radioligand binding, human melanocortin MC5 membranes, FlashPlate, [125I]-NDP-αMSH; settings: compound at 10 μM
T10 construct: purchased Perkin Elmer Biosignal
T10 sequence (P33032 whole entry): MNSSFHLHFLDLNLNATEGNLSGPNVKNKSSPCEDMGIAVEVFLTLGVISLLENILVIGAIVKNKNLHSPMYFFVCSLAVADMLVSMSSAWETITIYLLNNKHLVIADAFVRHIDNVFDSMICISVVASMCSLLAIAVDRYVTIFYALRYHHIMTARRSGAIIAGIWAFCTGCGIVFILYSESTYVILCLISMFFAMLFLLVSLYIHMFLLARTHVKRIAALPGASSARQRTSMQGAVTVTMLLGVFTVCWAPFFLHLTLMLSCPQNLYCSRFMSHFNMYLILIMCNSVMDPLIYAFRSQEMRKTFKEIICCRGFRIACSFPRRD
In short: as §2

Human opioid (ORL1) = biological target: T11, Human opioid (ORL1) (Homo sapiens, UniProt P41146); assay: Radioligand binding, human opioid ORL1 membranes, FlashPlate, [125I]-Nociceptin; settings: compound at 10 μM
T11 construct: purchased Perkin Elmer Biosignal
T11 sequence (P41146 whole entry): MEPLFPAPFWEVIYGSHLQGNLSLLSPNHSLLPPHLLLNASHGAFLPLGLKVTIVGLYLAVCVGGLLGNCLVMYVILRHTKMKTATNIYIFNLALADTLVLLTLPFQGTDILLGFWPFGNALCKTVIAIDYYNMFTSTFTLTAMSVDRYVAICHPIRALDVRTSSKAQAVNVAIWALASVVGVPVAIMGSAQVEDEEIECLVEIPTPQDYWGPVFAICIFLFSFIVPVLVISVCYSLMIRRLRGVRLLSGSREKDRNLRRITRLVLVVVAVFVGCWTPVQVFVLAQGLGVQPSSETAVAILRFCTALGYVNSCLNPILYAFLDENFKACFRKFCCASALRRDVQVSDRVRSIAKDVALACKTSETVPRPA
In short: as §2

T1 sequence (P25103 whole entry): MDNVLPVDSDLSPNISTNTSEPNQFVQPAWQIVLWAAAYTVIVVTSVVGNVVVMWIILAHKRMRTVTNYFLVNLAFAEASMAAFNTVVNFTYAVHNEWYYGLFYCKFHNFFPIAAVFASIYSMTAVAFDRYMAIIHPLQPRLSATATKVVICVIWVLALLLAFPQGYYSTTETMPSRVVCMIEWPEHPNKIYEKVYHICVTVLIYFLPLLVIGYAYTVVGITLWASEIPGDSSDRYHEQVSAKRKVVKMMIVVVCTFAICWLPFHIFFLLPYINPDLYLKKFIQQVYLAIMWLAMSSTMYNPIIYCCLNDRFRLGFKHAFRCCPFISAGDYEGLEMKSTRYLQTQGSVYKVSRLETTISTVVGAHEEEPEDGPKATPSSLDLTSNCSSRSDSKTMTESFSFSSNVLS

SMILES	A8: inhibition of radioligand binding, human neurokinin (NK1) (Human neurokinin (NK1); [125I]-Substance P)	A2: inhibition of radioligand binding, human κ-opioid (KOP) (Human κ-Opioid (KOP); [3H]-Diprenorphine)	A4: inhibition of radioligand binding, human melanocortin (MC4) (Human Melanocortin (MC4); [125I]-NDP-αMSH)	A3: inhibition of radioligand binding, human melanocortin (MC3) (Human Melanocortin (MC3); [125I]-NDP-αMSH)	A1: inhibition of radioligand binding, human δ-opioid (DOP) (Human δ-opioid (DOP); [3H]-Bremazocine)	A7: inhibition of radioligand binding, human μ-opioid (MOP) (Human μ-opioid (MOP); [3H]-Naloxone)	A9: inhibition of radioligand binding, human neuropeptide Y (NPY-Y1) ([1]; [125I]-PYY)	A11: inhibition of radioligand binding, mouse urotensin (mUR2) (Mouse urotensin (mUR2); [125I]-Urotensin II)	A6: inhibition of radioligand binding, human melanin-concentrating hormone (MCH1) [2]	A5: inhibition of radioligand binding, human melanocortin (MC5) (Human melanocortin (MC5); [125I]-NDP-αMSH)	A10: inhibition of radioligand binding, human opioid (ORL1) (Human opioid (ORL1); [125I]-Nociceptin)	further results
N=C(N)NCCC(=O)NC1C(OCc2ccc(-c3ccccc3)cc2)OC(COCc2ccc(Cl)cc2)C(O)C1OCc1ccc(Cl)cc1 (stereo not shown) [compound 410]												A8: inhibition of radioligand binding (Human neurokinin (NK1); [125I]-Substance P, human NK1 membranes): + (“+” indicates greater than 50% inhibition at 10 μM); A2: inhibition of radioligand binding (Human κ-Opioid (KOP); [3H]-Diprenorphine, human KOP membranes): − (“−” indicates less than 50% inhibition at 10 μM); A4: inhibition of radioligand binding (Human Melanocortin (MC4); [125I]-NDP-αMSH, human MC4 membranes): + (“+” indicates greater than 50% inhibition at 10 μM); A3: inhibition of radioligand binding (Human Melanocortin (MC3); [125I]-NDP-αMSH, human MC3 membranes): + (“+” indicates greater than 50% inhibition at 10 μM); A1: inhibition of radioligand binding (Human δ-opioid (DOP); [3H]-Bremazocine, human DOP membranes): − (“−” indicates less than 50% inhibition at 10 μM); A7: inhibition of radioligand binding (Human μ-opioid (MOP); [3H]-Naloxone, human MOP membranes): − (“−” indicates less than 50% inhibition at 10 μM); A9: inhibition of radioligand binding ([1]; [125I]-PYY, human NPY-Y1 membranes): − (“−” indicates less than 50% inhibition at 10 μM); A11: inhibition of radioligand binding (Mouse urotensin (mUR2); [125I]-Urotensin II, mouse mUR2 membranes): − (“−” indicates less than 50% inhibition at 10 μM); A6: inhibition of radioligand binding ([2]; [125I]-S36057, human MCH1 membranes): + (“+” indicates greater than 50% inhibition at 10 μM); A5: inhibition of radioligand binding (Human melanocortin (MC5); [125I]-NDP-αMSH, human MC5 membranes): + (“+” indicates greater than 50% inhibition at 10 μM); A10: inhibition of radioligand binding (Human opioid (ORL1); [125I]-Nociceptin, human ORL1 membranes): + (“+” indicates greater than 50% inhibition at 10 μM)
NCCCC(=O)NC1C(OCc2ccccc2)OC(COCc2ccc3ccccc3c2)C(O)C1OCc1ccc2ccccc2c1 (stereo not shown) [compound 375]	+ (“+” indicates greater than 50% inhibition at 10 μM)	− (“−” indicates less than 50% inhibition at 10 μM)	+ (“+” indicates greater than 50% inhibition at 10 μM)	− (“−” indicates less than 50% inhibition at 10 μM)	− (“−” indicates less than 50% inhibition at 10 μM)	− (“−” indicates less than 50% inhibition at 10 μM)	− (“−” indicates less than 50% inhibition at 10 μM)	− (“−” indicates less than 50% inhibition at 10 μM)	− (“−” indicates less than 50% inhibition at 10 μM)	+ (“+” indicates greater than 50% inhibition at 10 μM)	− (“−” indicates less than 50% inhibition at 10 μM)	
CSC1OC(COCc2cccc(N)c2)C(O)C(OCc2ccc(Cl)cc2)C1NC(=O)c1ccccc1 (stereo not shown) [compound 327]	+ (“+” indicates greater than 50% inhibition at 10 μM)	− (“−” indicates less than 50% inhibition at 10 μM)	− (“−” indicates less than 50% inhibition at 10 μM)	− (“−” indicates less than 50% inhibition at 10 μM)	− (“−” indicates less than 50% inhibition at 10 μM)	− (“−” indicates less than 50% inhibition at 10 μM)	− (“−” indicates less than 50% inhibition at 10 μM)	− (“−” indicates less than 50% inhibition at 10 μM)	− (“−” indicates less than 50% inhibition at 10 μM)	− (“−” indicates less than 50% inhibition at 10 μM)	− (“−” indicates less than 50% inhibition at 10 μM)	
CO[C@H]1[C@H](O)[C@@H](COCc2ccccc2)OC(OCc2ccc3ccccc3c2)[C@@H]1NC(=O)CNC(=N)N (stereo partly shown) [compound 74]												A8 radioligand binding inhibition (Human neurokinin (NK1); human neurokinin NK1 membranes): + (“+” indicates greater than 50% inhibition at 10 μM); A2 radioligand binding inhibition (Human κ-Opioid (KOP); human κ-opioid (KOP) membranes): − (“−” indicates less than 50% inhibition at 10 μM); A4 radioligand binding inhibition (Human Melanocortin (MC4); human melanocortin MC4 membranes): − (“−” indicates less than 50% inhibition at 10 μM); A3 radioligand binding inhibition (Human Melanocortin (MC3); human melanocortin MC3 membranes): − (“−” indicates less than 50% inhibition at 10 μM); A1 radioligand binding inhibition (Human δ-opioid (DOP); human δ-opioid (DOP) membranes): − (“−” indicates less than 50% inhibition at 10 μM); A7 radioligand binding inhibition (Human μ-opioid (MOP); human μ-opioid (MOP) membranes): + (“+” indicates greater than 50% inhibition at 10 μM); A9 radioligand binding inhibition ([1]; human NPY-Y1 membranes): − (“−” indicates less than 50% inhibition at 10 μM); A11 radioligand binding inhibition (Mouse urotensin (mUR2); mouse urotensin mUR2 membranes): − (“−” indicates less than 50% inhibition at 10 μM); A6 radioligand binding inhibition ([2]; human MCH1 membranes): − (“−” indicates less than 50% inhibition at 10 μM); A5 radioligand binding inhibition (Human melanocortin (MC5); human melanocortin MC5 membranes): + (“+” indicates greater than 50% inhibition at 10 μM); A10 radioligand binding inhibition (Human opioid (ORL1); human ORL1 membranes): − (“−” indicates less than 50% inhibition at 10 μM)
N=C(N)NCC(=O)NC1C(OCc2ccc(Cl)cc2)OC(COCc2ccccc2)C(O)C1OCc1ccc(Cl)cc1 (single isomer, unassigned) [compound 510]	+ (“+” indicates greater than 50% inhibition at 10 μM)	− (“−” indicates less than 50% inhibition at 10 μM)	+ (“+” indicates greater than 50% inhibition at 10 μM)		− (“−” indicates less than 50% inhibition at 10 μM)		− (“−” indicates less than 50% inhibition at 10 μM)	− (“−” indicates less than 50% inhibition at 10 μM)	+ (“+” indicates greater than 50% inhibition at 10 μM)	+ (“+” indicates greater than 50% inhibition at 10 μM)		A3: inhibition of radioligand binding, human melanocortin (MC3) (Human Melanocortin (MC3); [125I]-NDP-αMSH, 10 µM): + (“+” indicates greater than 50% inhibition at 10 μM); A7: inhibition of radioligand binding, human μ-opioid (MOP) (Human μ-opioid (MOP); [3H]-Naloxone, 10 µM): − (“−” indicates less than 50% inhibition at 10 μM); A10: inhibition of radioligand binding, human opioid (ORL1) (Human opioid (ORL1); [125I]-Nociceptin, 10 µM): + (“+” indicates greater than 50% inhibition at 10 μM)
